From the CheMixHub viscosity set
“And” between values parts separate entries of the source, which are not always exact repeats. Equal values may be shown once.

CCCC[n+]1ccn(C)c1.O=[N+]([O-])[O-]
101 kPa
Conditions | viscosity [mPa·s]
293.15 K | 212.1
298.15 K | 158.8
303.15 K | 121.2
308.15 K | 94.07
313.15 K | 74.19
318.15 K | 59.38
323.15 K | 48.18

CC[N+]1(C)CCCC1.COP(=O)([O-])OC
100 kPa
Conditions | viscosity [mPa·s]
293.15 K | 227.7
298.15 K | 169.4
303.15 K | 123.5
308.15 K | 93.55
313.15 K | 72.82
318.15 K | 56.38
323.15 K | 45.1

c1ccc2c(c1)CCCC2
viscosity
Conditions | 293.15 K | 298.15 K | 303.15 K | 308.15 K | 313.15 K | 318.15 K | 323.15 K
100 kPa | 2.195 mPa·s and 2.2 mPa·s | 1.985 mPa·s and 1.99 mPa·s | 1.807 mPa·s and 1.81 mPa·s | 1.654 mPa·s and 1.66 mPa·s | 1.521 mPa·s and 1.52 mPa·s | 1.403 mPa·s and 1.4 mPa·s | 1.301 mPa·s and 1.3 mPa·s
101 kPa | – | 1.985 mPa·s | – | – | – | – | –
101.33 kPa | – | 1.968 mPa·s | 1.778 mPa·s | 1.612 mPa·s | 1.473 mPa·s | – | –
102 kPa | 2.25 mPa·s | – | 1.85 mPa·s | – | – | – | –

CCCCCCCCN(CCCCCCCC)CCCCCCCC
Conditions | viscosity
298.15 K, 101.33 kPa | 8.325 mPa·s and 8.325 mPa·s
303.15 K, 101 kPa | 6.95 mPa·s

C[N+]1(CC2CO2)CCCC1=O.[Cl-] (stereo not given)
101 kPa
Conditions | viscosity
293.15 K | 1.677 mPa·s and 1.623 mPa·s
298.15 K | 1.537 mPa·s and 1.489 mPa·s
303.15 K | 1.415 mPa·s and 1.373 mPa·s
308.15 K | 1.309 mPa·s and 1.27 mPa·s
313.15 K | 1.215 mPa·s and 1.18 mPa·s

CCOCCOCCOCC
viscosity [mPa·s]
Conditions | 298.15 K | 308.15 K | 318.15 K
101 kPa | 1.268 | – | –
101.33 kPa | 1.268 | 1.048 | 0.881

C[N+](C)(C)C.[OH-]
100 kPa
Conditions | viscosity [mPa·s]
298.15 K | 2.77
303.15 K | 2.71
308.15 K | 2.62
313.15 K | 2.56

CCCCCCBr
101 kPa
Conditions | viscosity [mPa·s]
298.15 K | 0.9475
303.45 K | 0.885
313.35 K | 0.782

CCCCCCCC(=O)OCC(COC(=O)CCCCCCC)OC(=O)CCCCCCC
101.33 kPa
Conditions | viscosity [mPa·s]
298 K | 19.98
303 K | 16.58
308 K | 13.79
313 K | 11.57

[Cl-].[Cl-].[Cl-].[Cl-].[Ti+4]
101 kPa
Conditions | viscosity [mPa·s]
293.15 K | 0.827
313.15 K | 0.702

CCCC[n+]1ccn(C)c1C.F[B-](F)(F)F
Conditions | viscosity [mPa·s]
298.15 K, 101 kPa | 573

CCOS(=O)(=O)[O-].CC[N+](CC)=C(N(C)C)N(C)C
100 kPa
Conditions | viscosity
293.15 K | 190.9 mPa·s and 190.9 mPa·s
298.15 K | 139 mPa·s and 139 mPa·s
303.15 K | 104.9 mPa·s and 104.9 mPa·s
308.15 K | 80.44 mPa·s and 80.44 mPa·s
313.15 K | 63.24 mPa·s and 63.24 mPa·s
318.15 K | 50.27 mPa·s and 50.27 mPa·s
323.15 K | 40.55 mPa·s and 40.55 mPa·s

CCOC(=O)CCl
viscosity
Conditions | 303.15 K | 308.15 K
101.3 kPa | 1.013 mPa·s and 1.013 mPa·s | 0.93 mPa·s and 0.93 mPa·s
101.33 kPa | 1.007 mPa·s and 1.007 mPa·s | 0.933 mPa·s and 0.933 mPa·s

CC(=O)[O-].CCCC[N+](CC)(CC)CC
101 kPa
Conditions | viscosity [mPa·s]
298.2 K | 439
313.2 K | 306.7

C=CC(=O)OC(C)(C)C
viscosity [mPa·s]
Conditions | 293.15 K | 298.15 K | 303.15 K | 308.15 K | 313.15 K | 318.15 K
100 kPa | 0.9072 | 0.8309 | 0.76 | 0.701 | 0.6485 | 0.6034
101 kPa | 0.9072 | 0.8309 | 0.76 | 0.701 | 0.6485 | 0.6034

CCNCCO
viscosity [mPa·s]
Conditions | 293.15 K | 298.15 K | 303.15 K | 308.15 K | 313.15 K | 318.15 K | 323.15 K
101 kPa | – | – | 9.639 | 7.83 | 6.419 | 5.358 | 4.517
101.33 kPa | 16.27 | 12.75 | 10.16 | 8.223 | 6.748 | 5.608 | 4.714

O=C(OCc1ccccc1)c1ccccc1
Conditions | viscosity
298.15 K, 101 kPa | 8.454 mPa·s and 8.45 mPa·s
313.15 K, 101.33 kPa | 5.04 mPa·s

CCCCOCCO
Conditions | viscosity
293.15 K, 101.3 kPa | 3.248 mPa·s
293.15 K, 101.33 kPa | 3.26 mPa·s
295.15 K, 101 kPa | 3.015 mPa·s
297.15 K, 101 kPa | 2.857 mPa·s
298 K, 101.3 kPa | 2.786 mPa·s
298.15 K, 100 kPa | 2.855 mPa·s
298.15 K, 101.3 kPa | 2.834 mPa·s
298.15 K, 101.33 kPa | 2.844 mPa·s
298.45 K, 101 kPa | 2.825 mPa·s
299.15 K, 101 kPa | 2.709 mPa·s
301.15 K, 101 kPa | 2.576 mPa·s
303 K, 101.3 kPa | 2.403 mPa·s
303.15 K, 101.33 kPa | 2.408 mPa·s
305.15 K, 101 kPa | 2.327 mPa·s
307.15 K, 101 kPa | 2.217 mPa·s
308 K, 101.3 kPa | 2.115 mPa·s
308.15 K, 100 kPa | 2.274 mPa·s
308.15 K, 101.3 kPa | 2.228 mPa·s and 2.204 mPa·s
308.15 K, 101.33 kPa | 2.193 mPa·s
309.15 K, 101 kPa | 2.118 mPa·s
311.15 K, 101 kPa | 2.017 mPa·s
313 K, 101.3 kPa | 1.867 mPa·s
313.15 K, 101.3 kPa | 1.964 mPa·s
313.15 K, 101.33 kPa | 1.97 mPa·s and 1.869 mPa·s
315.15 K, 101 kPa | 1.844 mPa·s
317.15 K, 101 kPa | 1.764 mPa·s
318 K, 101.3 kPa | 1.657 mPa·s
318.15 K, 101 kPa | 1.937 mPa·s and 1.938 mPa·s and 1.928 mPa·s
318.15 K, 101.3 kPa | 1.759 mPa·s
318.15 K, 101.33 kPa | 1.764 mPa·s
319.15 K, 101 kPa | 1.688 mPa·s
321.15 K, 101 kPa | 1.618 mPa·s
323.15 K, 101 kPa | 1.552 mPa·s
323.15 K, 101.3 kPa | 1.584 mPa·s
323.15 K, 101.33 kPa | 1.588 mPa·s

CCCCCCCCCCCC[P+](CCCC)(CCCC)CCCC.N#Cc1ccc[n-]1
100 kPa
Conditions | viscosity [mPa·s]
293.15 K | 567
298.15 K | 389
303.15 K | 297
313.15 K | 166

CCCC[n+]1ccn(C)c1.N#C[C-](C#N)C#N
100 kPa
Conditions | viscosity [mPa·s]
293.15 K | 34.9
298.15 K | 27.97
303.15 K | 22.85
308.15 K | 18.98
313.15 K | 15.99
318.15 K | 13.66
323.15 K | 11.8

CNC=O
viscosity
Conditions | 298.15 K | 303 K | 303.15 K | 308.15 K | 313.15 K | 318.15 K | 323.15 K
101 kPa | 1.746 mPa·s | 1.475 mPa·s | 1.585 mPa·s and 1.597 mPa·s and 1.58 mPa·s | 1.462 mPa·s and 1.473 mPa·s and 1.434 mPa·s | 1.352 mPa·s and 1.361 mPa·s and 1.306 mPa·s | 1.255 mPa·s and 1.263 mPa·s and 1.191 mPa·s | 1.175 mPa·s
101.3 kPa | 1.695 mPa·s | – | – | – | – | – | –
101.33 kPa | – | – | 1.586 mPa·s | 1.463 mPa·s | 1.352 mPa·s | 1.256 mPa·s | 1.167 mPa·s

CC(C)c1cc(C(C)C)cc(C(C)C)c1
102 kPa
Conditions | viscosity [mPa·s]
293.15 K | 4.12
303.15 K | 3.05
313.15 K | 2.35
323.15 K | 1.86
